Measurements published in US9944967B2, “Methods for the site-selective introduction of halogen into natural products” (THE REGENTS OF THE UNIVERSITY OF CALIFORNIA, priority 2013, dated 2018).

How the values were obtained:
[1] = Stability of fluoromalonyl-CoA solutions; format: physicochemical; conditions: room temperature; in water or D2O
Experimental: Fluoromalonyl-CoA was prepared enzymatically from fluoromalonate and CoA using MatB and ATP. A myokinase/pyruvate kinase/PEP system was also used to regenerate ATP in order to avoid high concentrations of AMP that might inhibit MatB. The reaction mixture (10 mL) contained 100 mM sodium phosphate, pH 7.5, phosphoenolpyruvate (5 mM), TCEP (2.5 mM), magnesium chloride (5 mM), fluoromalonate (2.5 mM), ATP (2.5 mM), pyruvate kinase (36 U), myokinase (20 U), CoA (2 mM) and MatB (5 μM). The mixture was incubated at 37° C. for 6 h and then at room temperature for 16 h before lyophilizing overnight. The residue was dissolved in water (1.6 mL) and acidified to pH ˜2 by addition of 70% perchloric acid (160 μL). Insoluble material was removed by centrifugation at 18,000×g for 10 min. […] HR-ESI-MS [M−H]^−: calculated for C24H36FN2O19P3S, m/z, 870.0989. found m/z 870.0991.

DEBSMod6+TE [2] = experiment: Covalent inhibition assay for DEBSMod6+TE; format: biochemical; conditions: 18 h incubation in F-TKL reaction, then tested for TKL production; preliminary
Experimental: Two triketide reaction mixtures (200 μL) were prepared as described above, one containing fluoromalonate (10 mM) and the other methylmalonate (10 mM). DEBSMod6+TE (10 μM) and NDK-SNAC (2.5 mM) were added to each and the reactions were incubated at 37° C. for 18 h. The protein fraction was isolated from each mixture at room temperature by desalting on a Sephadex G-25 column (3 mL) using 400 mM sodium phosphate, pH 7.5. Fractions were pooled by Bradford assay and concentrated to 200 μL using Amicon Ultra spin concentrators (3 kDa MWCO). The isolated DEBSMod6+TE was assayed by adding TCEP (2.5 mM), methylmalonyl-CoA (1 mM) and NDK-SNAC (1 mM) to this mixture to give a final volume of 210 μL and incubating at 37° C. for 3 h, then analyzed by HPLC as described above.

DEBSMod6+TE [3] = target: T1, DEBSMod6+TE (Saccharopolyspora erythraea, UniProt Q03133); experiment: Acyl-CoA hydrolysis by DEBSMod6+TE (DTNB assay); format: biochemical
T1 construct: the sixth module of DEBS, including the terminal thioesterase (DEBSMod6+TE); His6 (C); made in house; host or cells: E. coli BAP1
T1 sequence (Q03133 1492-3172): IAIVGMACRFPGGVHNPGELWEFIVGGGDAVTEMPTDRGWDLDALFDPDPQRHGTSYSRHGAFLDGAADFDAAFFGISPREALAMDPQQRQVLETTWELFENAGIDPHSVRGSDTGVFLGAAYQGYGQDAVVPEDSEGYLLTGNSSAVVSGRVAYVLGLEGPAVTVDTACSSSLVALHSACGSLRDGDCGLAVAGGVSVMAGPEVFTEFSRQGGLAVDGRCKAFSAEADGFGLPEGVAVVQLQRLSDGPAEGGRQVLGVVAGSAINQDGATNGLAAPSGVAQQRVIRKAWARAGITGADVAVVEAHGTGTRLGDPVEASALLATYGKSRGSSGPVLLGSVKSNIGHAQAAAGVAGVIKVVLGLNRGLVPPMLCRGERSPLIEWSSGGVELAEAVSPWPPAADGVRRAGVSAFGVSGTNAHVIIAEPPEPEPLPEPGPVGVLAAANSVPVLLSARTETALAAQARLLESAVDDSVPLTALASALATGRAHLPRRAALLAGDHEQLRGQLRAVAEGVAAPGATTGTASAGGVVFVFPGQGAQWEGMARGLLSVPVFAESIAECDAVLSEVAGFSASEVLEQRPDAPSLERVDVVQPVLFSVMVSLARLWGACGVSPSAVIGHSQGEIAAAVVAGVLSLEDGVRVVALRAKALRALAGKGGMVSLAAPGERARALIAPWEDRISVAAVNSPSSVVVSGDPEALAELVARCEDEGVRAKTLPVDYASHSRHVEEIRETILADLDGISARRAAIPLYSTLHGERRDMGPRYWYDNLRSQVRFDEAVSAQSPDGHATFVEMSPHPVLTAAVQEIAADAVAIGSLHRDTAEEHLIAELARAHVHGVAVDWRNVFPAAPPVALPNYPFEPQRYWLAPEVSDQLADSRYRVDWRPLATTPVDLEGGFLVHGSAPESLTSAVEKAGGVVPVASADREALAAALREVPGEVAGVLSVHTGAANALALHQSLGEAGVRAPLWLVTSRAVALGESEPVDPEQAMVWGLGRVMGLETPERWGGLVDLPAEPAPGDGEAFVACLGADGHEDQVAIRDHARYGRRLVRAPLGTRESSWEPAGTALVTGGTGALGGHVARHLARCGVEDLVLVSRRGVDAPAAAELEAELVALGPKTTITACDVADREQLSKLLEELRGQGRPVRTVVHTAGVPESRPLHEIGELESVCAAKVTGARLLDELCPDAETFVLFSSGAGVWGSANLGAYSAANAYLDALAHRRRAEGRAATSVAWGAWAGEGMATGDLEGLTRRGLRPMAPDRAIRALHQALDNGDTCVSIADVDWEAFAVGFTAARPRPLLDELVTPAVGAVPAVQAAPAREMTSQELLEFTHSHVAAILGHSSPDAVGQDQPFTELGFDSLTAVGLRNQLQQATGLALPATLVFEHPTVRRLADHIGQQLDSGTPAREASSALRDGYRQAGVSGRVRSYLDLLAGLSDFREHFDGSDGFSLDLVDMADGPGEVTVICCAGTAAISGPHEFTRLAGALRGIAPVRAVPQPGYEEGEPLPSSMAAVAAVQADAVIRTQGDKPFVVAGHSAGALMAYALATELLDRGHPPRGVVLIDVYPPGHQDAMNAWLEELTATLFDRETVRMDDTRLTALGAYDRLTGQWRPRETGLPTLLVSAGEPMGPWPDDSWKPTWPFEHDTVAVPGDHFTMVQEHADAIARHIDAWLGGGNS
Experimental: Hydrolytic activity of DEBSMod6+TE was measured by monitoring the reaction of free CoA with DTNB as described previously (Huang, F., et al., Chem. Biol., 13:475-484 (2006)). Assays were performed at 37° C. in a total volume of 200 μL containing 400 mM sodium phosphate, pH 7.5, 500 μM DTNB, and DEBSMod6+TE (1 μM). Reactions were initiated by addition of acyl-CoA (0.5 mM) and monitored at 412 nm in a Beckman Coulter DU-800 spectrophotometer. Release of CoA was quantified by comparison to a standard curve (5-100 μM).

[4] = system: malonyl-CoA synthetase (MatB); experiment: Malonyl-CoA synthetase (MatB) coupled assay; format: biochemical, S. coelicolor
Experimental: MatB activity was measured using a modified literature method (Williamson, J. R., et al., Method. Enzymol., 434-513 (1969)). The production of AMP was coupled to pyruvate formation by myokinase and pyruvate kinase, which in turn was coupled to NADH oxidation by lactate dehydrogenase. Assays were performed at 30° C. in a total volume of 200 μL containing 100 mM HEPES, pH 7.5, TCEP (1 mM), ATP (2.5 mM), magnesium chloride (5 mM), phosphoenolpyruvate (1 mM), NADH (0.3 mM), myokinase (0.5 U), pyruvate kinase (3.6 U), lactate dehydrogenase (2.6 U), dicarboxylic acid (25 μM-1 mM malonate, 50 μM-10 mM fluoromalonate or 25 μM-1.5 mM methylmalonate) and MatB (26 nM for malonate, 1 μM for fluoromalonate and 200 nM for methylmalonate). The reaction was initiated with addition of CoA (0.5 mM) and monitored at 340 nm in a Beckman Coulter DU-800 spectrophotometer.

Compound	stability of solutions [1]	covalent inactivation of DEBSMod6+TE (DEBSMod6+TE [2])	v0 (rate of acyl-CoA hydrolysis) (DEBSMod6+TE [3]; DEBSMod6 + TE (1 μM), acyl-CoA (500 μM), mean ± s.d. (n = 4)) [µM/min]	Relative rate of acyl-CoA hydrolysis (DEBSMod6+TE [3]; relative to methylmalonyl-CoA)	selectivity of MatB for malonate over fluoromalonate [4] [fold]
CC(C)(COP(=O)(O)OP(=O)(O)OC[C@H]1O[C@@H](n2cnc3c(N)ncnc32)[C@H](O)[C@@H]1OP(=O)(O)O)[C@@H](O)C(=O)NCCC(=O)NCCSC(=O)C(F)C(=O)O (some centres unmarked) [Fluoromalonyl-CoA]	at least 24 h	not due to covalent inactivation of the enzyme	3.5 ± 0.3	2.6	
Fluoromalonate					103
